molecular target: T1, GCS (Canis lupus familiaris, UniProt A0A8I3MXG6); assay: Assay 1: GCS Enzymatic Assay (MDCK cell lysate, C6-NBD-Ceramide, LC/MS); assay type: biochemical, canine; settings: Table 1; MDCK cell lysate; read-out: IC50 (nM) generated from Assay 1
T1 sequence (A0A8I3MXG6 1-394): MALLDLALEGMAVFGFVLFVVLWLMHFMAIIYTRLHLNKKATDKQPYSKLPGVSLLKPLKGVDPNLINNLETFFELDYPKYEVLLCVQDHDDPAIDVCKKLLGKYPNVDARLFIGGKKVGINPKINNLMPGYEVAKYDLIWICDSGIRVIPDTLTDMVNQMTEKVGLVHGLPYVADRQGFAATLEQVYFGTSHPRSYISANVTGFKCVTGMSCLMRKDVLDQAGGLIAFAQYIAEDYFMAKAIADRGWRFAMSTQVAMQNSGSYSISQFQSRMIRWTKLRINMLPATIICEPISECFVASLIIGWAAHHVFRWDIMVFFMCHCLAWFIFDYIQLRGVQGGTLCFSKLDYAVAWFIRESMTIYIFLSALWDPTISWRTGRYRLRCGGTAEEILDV
In short: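 LC/MS/MS measurement of glucosylceramide and NBD-ceramide after a 1 h, 37 °C reaction with 100 μM UDP-glucose and 10 μM C6-NBD-ceramide gave IC50s or percent inhibition.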

| Compound | IC50 |
| --- | --- |
| Cn1ncc2cc([C@@H](O)[C@@H](CN3CCCC3)NC(=O)C(F)(F)c3cc4cc(Cl)ccc4o3)ccc21 [Compound 49, 2-(5-chlorobenzofuran-2-yl)-2,2-difluoro-N-((1R,2R)-1-hydroxy-1-(1-methyl-1H-indazol-5-yl)-3-(pyrrolidin-1-yl)propan-2-yl)acetamide] | 50 to 5000 nM |
| O=C(N[C@H](CN1CCCC1)[C@H](O)c1ccc2c(c1)OCCO2)C(F)(F)C1Cc2ccc(-c3ccccn3)cc2C1 (stereo partly drawn) [Compound 50, N-((1R,2R)-1-(2,3-dihydrobenzo[b][1,4]dioxin-6-yl)-1-hydroxy-3-(pyrrolidin-1-yl)propan-2-yl)-2,2-difluoro-2-(5-(pyridin-2-yl)-2,3-dihydro-1H-inden-2-yl)acetamide] | < 50 nM |
| O=C(N[C@H](CN1C2CCC1CC2)[C@H](O)c1ccc2c(c1)OCCO2)C(F)(F)c1cc2cc(Cl)ccc2o1 [Compound 53, N-((1R,2R)-3-(7-azabicyclo[2.2.1]heptan-7-yl)-1-(2,3-dihydrobenzo[b][1,4]dioxin-6-yl)-1-hydroxypropan-2-yl)-2-(5-chlorobenzofuran-2-yl)-2,2-difluoroacetamide] | < 50 nM |

Further lines, results first:

| IC50 | Compound |
| --- | --- |
| < 50 nM | O=C(N[C@H](CN1CC2CCC1C2)[C@H](O)c1ccc2c(c1)OCCO2)C(F)(F)c1cc2cc(Cl)ccc2o1 (stereo partly drawn) [Compound 51, N-((1R,2R)-3-(2-azabicyclo[2.2.1]heptan-2-yl)-1-(2,3-dihydrobenzo[b][1,4]dioxin-6-yl)-1-hydroxypropan-2-yl)-2-(5-chlorobenzofuran-2-yl)-2,2-difluoroacetamide] |
| < 50 nM | O=C(N[C@H](CN1CCCC1)[C@H](O)c1ccc(OC2CC2)c(Cl)c1)C(F)(F)CCc1ccc2ccccc2c1 [Compound 52, N-((1R,2R)-1-(3-chloro-4-cyclopropoxyphenyl)-1-hydroxy-3-(pyrrolidin-1-yl)propan-2-yl)-2,2-difluoro-4-(naphthalen-2-yl)butanamide] |
| < 50 nM | COc1ccc([C@@H](O)[C@@H](CN2CCCC2)NC(=O)C(F)(F)c2cc3cc(Cl)ccc3o2)cn1 [Compound 56, 2-(5-chlorobenzofuran-2-yl)-2,2-difluoro-N-((1R,2R)-1-hydroxy-1-(6-methoxypyridin-3-yl)-3-(pyrrolidin-1-yl)propan-2-yl)acetamide] |
| < 50 nM | [2H][C@@](O)(c1ccc2c(c1)OCCO2)[C@@H](CN1CCCC1)NC(=O)C(F)(F)c1cc2cc(Cl)ccc2o1 [Compound 57, 2-(5-chlorobenzofuran-2-yl)-N-((1R,2R)-1-(2,3-dihydrobenzo[b][1,4]dioxin-6-yl)-1-deutero-1-hydroxy-3-(pyrrolidin-1-yl)propan-2-yl)-2,2-difluoroacetamide] |
| < 50 nM | O=C(N[C@H](CN1CCCC1)C(O)c1ccc2c(c1)OCCO2)C(F)(F)c1cc2cc(Cl)ccc2o1 (stereo partly drawn) [Compound 57B, N-[2-(2H,3H-benzo[e]1,4-dioxan-6-yl)(1R)-2-hydroxy-1-(pyrrolidinylmethyl)ethyl]-2-(5-chlorobenzo[d]furan-2-yl)-2,2-difluoroacetamide] |

same assay, conditions: Table 1; values marked *; MDCK cell lysate

| Compound | % inhibition generated from Assay 1 |
| --- | --- |
| Cn1ncc2ccc([C@@H](O)[C@@H](CN3CCCC3)NC(=O)C(F)(F)c3cc4cc(Cl)ccc4o3)cc21 [Compound 54, 2-(5-chlorobenzofuran-2-yl)-2,2-difluoro-N-((1R,2R)-1-hydroxy-1-(1-methyl-1H-indazol-6-yl)-3-(pyrrolidin-1-yl)propan-2-yl)acetamide] | B* (the compound had a % inhibition of greater than or equal to about 3% but less than about 50%) |
| Cn1ncc2ccc([C@H](O)[C@@H](CN3CCCC3)NC(=O)C(F)(F)c3cc4cc(Cl)ccc4o3)cc21 [Compound 54G, 2-(5-chlorobenzofuran-2-yl)-2,2-difluoro-N-((1S,2R)-1-hydroxy-1-(1-methyl-1H-indazol-6-yl)-3-(pyrrolidin-1-yl)propan-2-yl)acetamide] | B* (the compound had a % inhibition of greater than or equal to about 3% but less than about 50%) |

— patent US10227323B2, “Glucosylceramide synthase inhibitors for the treatment of diseases” (BIOMARIN PHARMACEUTICAL INC., priority 2013, dated 2019)
